Measurements reported in PubChem BioAssay AID1845228.

Settings: pampa; 60.0 min; 50.0 µM

Row | Structure (SMILES) | Papp [×10⁻⁶ cm/s]
1 | C=CC1=C(C(=O)O)N2C(=O)[C@@H](NC(=O)/C(=N/OCC(=O)O)c3csc(N)n3)[C@H]2SC1 | 4
2 | Nc1c(C(=O)Nc2ccc(Cl)c(C(F)(F)F)c2)sc2nc3c(cc12)N1CCC3CC1 | 213
3 | COCCNC(=O)c1ccc(-c2ncc3cnc(-c4cccc(F)c4)cn23)cc1 | 95
4 | COc1ccc2c(c[n+](C)c3c4cc5c(cc4ccc23)OCO5)c1OC | 121
5 | CC(C)CNc1ccnc(NCc2csc(-c3ccccc3)n2)n1 | 228
6 | N#Cc1cccc(NC(=O)c2sc3nc4c(cc3c2N)N2CCC4CC2)c1 | 142
7 | OCCCCC#Cc1cncc(OC[C@@H]2CCN2)c1 | < 1
8 | CCO[C@@H]1OC(=O)C[C@@H]1NC(=O)[C@@H]1CCCN1C(=O)[C@@H](NC(=O)c1ccc(N)c(Cl)c1)C(C)(C)C | 4
9 | NC(=O)C1=C(O)[C@@]2(O)C(=O)C3=C(O)c4c(O)cccc4C[C@H]3C[C@H]2CC1=O | 9
10 | CCNC(=O)c1noc(-c2cc(C(C)C)c(O)cc2O)c1-c1ccc(CN2CCOCC2)cc1 | 117
11 | CC(C)(C)c1ccc2c(c1)CC[C@H]2NC(=O)Nc1cccc2[nH]ncc12 | < 1
12 | Oc1ccc(/C=C/c2cc(O)cc(O)c2)cc1 | 5
13 | COC(=O)c1ccccc1O[C@@H]1O[C@H](CO[C@@H]2OC[C@@H](O)[C@H](O)[C@H]2O)[C@@H](O)[C@H](O)[C@H]1O | < 1
14 | O=C(N[C@@H](CO)[C@H](O)c1ccc([N+](=O)[O-])cc1)C(Cl)Cl | 3
15 | CC(=O)Nc1ccc(C(=O)NC(C)(C)C)cc1 | 2
16 | COc1ccc(C)cc1Nc1c2c(nc3ccccc13)CCC2 | 215
17 | CSc1nc(N)cc(Oc2ccc(-c3nc(Nc4cccc(C(F)(F)F)c4)n[nH]3)cc2)n1 | 53.8
18 | Cc1nc(C2CCCCC2)c(-c2ccc(S(N)(=O)=O)c(F)c2)o1 | 172
19 | Nc1ncnc2c1ncn2[C@@H]1O[C@H](CSCC[C@H](N)C(=O)O)[C@@H](O)[C@H]1O | < 1
20 | Cn1nnnc1Sc1ncnc2scc(-c3ccc(Cl)cc3)c12 | > 300
21 | CCCN(CCC)CCc1cccc2c1CC(=O)N2 | 34
22 | O=C(N[C@H]1CCS[C@H]2CCC[C@@H](C(=O)O)N2C1=O)[C@@H](S)Cc1ccccc1 | < 1
23 | COc1cc(-c2nc(Cn3nnc(C(=O)Nc4cc(C)cc(C)c4)c3C)c(C)o2)cc(OC)c1OC | 17
24 | O=C(NC1CCC(O)CC1)c1ccc(-c2ncc3cnc(-c4ccccc4)cn23)cc1 (stereo not given) | 35

Row | Structure (SMILES) | Papp [×10⁻⁶ cm/s]
25 | N=c1c2c(-c3ccccc3)cn(Cc3ccc(Br)cc3)c2ncn1CCCCO | 208
26 | CCCCCCCCc1ccc(CCC(N)(CO)CO)cc1 | < 1
27 | Nc1ccc(/C=C/C(=O)NCc2cc3cc(-c4ccc(C(=O)N5CCC(F)(F)CC5)cc4)cc(-c4ccc(F)cc4)c3o2)cn1 | < 1
28 | CC[C@@H]1CN(C(=O)NCC(F)(F)F)C[C@@H]1c1cnc2cnc3[nH]ccc3n12 | 2
29 | Cc1c2ccncc2c(C)c2c1[nH]c1ccccc12 | > 300
30 | C[C@]12CCCN1CC1=NNC(=O)c3cc(F)cc4[nH]c2c1c34 | 22
31 | N=c1c2c(-c3ccccc3)cn(Cc3ccccc3)c2ncn1[C@H](CO)Cc1ccccc1 | 22
32 | Cc1ccnc(NC(c2cccc(O)c2)c2ccc3ccc(C)nc3c2O)c1 (stereo not given) | 115
33 | Cc1ccc(=O)n(-c2ccccc2)c1 | 14
34 | COc1ccc(CCn2cnc3c(c(-c4ccccc4)c(-c4ccccc4)n3Cc3ccccc3)c2=N)cc1OC | 287
35 | Cc1cc(-c2nc(C(=O)Nc3cn(C4CCOCC4)nc3C(N)=O)co2)ccn1 | 43
36 | O=C(Nc1cnc(Cl)nc1)c1ccc(F)c(F)c1 | 61
37 | N=c1c2c(-c3ccccc3)c(-c3ccccc3)n(Cc3ccccc3)c2ncn1CCCCO | 259
38 | CN[C@H](CC(C)C)C(=O)N[C@H]1C(=O)N[C@@H](CC(N)=O)C(=O)N[C@H]2C(=O)N[C@H]3C(=O)N[C@H](C(=O)N[C@H](C(=O)O)c4cc(O)cc(O)c4-c4cc3ccc4O)[C@H](O[C@H]3C[C@](C)(N)[C@@H](O)[C@H](C)O3)c3ccc(c(Cl)c3)Oc3cc2cc(c3O[C@@H]2O[C@H](CO)[C@@H](O)[C@H](O)[C@H]2O[C@H]2C[C@](C)(NCc3ccc(-c4ccc(Cl)cc4)cc3)[C@@H](O)[C@H](C)O2)Oc2ccc(cc2Cl)[C@H]1O | 12
39 | COCCn1cnc2c(c(-c3ccccc3)c(-c3ccccc3)n2Cc2ccccc2)c1=N | 174
40 | N=c1c2c(-c3ccccc3)cn(Cc3ccccc3)c2ncn1CCCCO | 110
41 | CNc1oc(-c2cccc(Cl)c2Cl)nc1C#N | 124
42 | O=C1CCCC2=C1C(c1[nH]ncc1Cl)N=C(Nc1nc3ccccc3o1)N2 (stereo not given) | 275
43 | CC[C@@]1(O)C(=O)OCc2c1cc1n(c2=O)Cc2cc3ccccc3nc2-1 | 23
44 | N[C@@H](C(=O)N[C@@H]1C(=O)N2C(C(=O)O)=C(Cl)CC[C@H]12)c1ccccc1 | < 1
45 | Cc1ccccc1NC(=O)Nc1ccc(CC(=O)N(C)[C@@H](CC(C)C)C(=O)NCC[C@H](NC(=O)[C@@H]2CCCN2S(=O)(=O)c2cc(Cl)cc(Cl)c2)C(=O)O)cc1 | 5
46 | NCC1(CC(=O)O)CCCCC1 | < 1
47 | CCCCOC(=O)NS(=O)(=O)c1sc(CC(C)C)cc1-c1ccc(Cn2ccnc2)cc1 | 180
48 | COc1ccc(Cn2c(-c3ccccc3)c(-c3ccccc3)c3c(=N)n(CCCCCO)cnc32)cc1 | 206

Row | Structure (SMILES) | Papp [×10⁻⁶ cm/s]
49 | CC(=O)OC[C@@H]1O[C@@H](n2ccc(=O)[nH]c2=O)[C@H](OC(C)=O)[C@H]1OC(C)=O | < 1
50 | O=C(Nc1ccc2[nH]c(=O)oc2c1)C(=O)N1CCC(Cc2ccc(F)cc2)CC1 | 207
51 | N#Cc1cccc(-c2nc(-c3cccnc3)no2)c1 | 150
52 | Cn1cc(C2=C(c3coc4ccccc34)C(=O)NC2=O)c2cc(Br)ccc21 | 3
53 | c1ccc(Nc2nc3c(s2)CCCc2[nH]ncc2-3)nc1 | 194
54 | COC(=O)[C@]12CCC(C)(C)C[C@@H]1[C@@H]1C(=O)C=C3[C@@]4(C)C=C(C#N)C(=O)C(C)(C)[C@@H]4CC[C@@]3(C)[C@]1(C)CC2 | 8
55 | Cc1cccc(NC(=O)c2ccc(C(F)(F)F)cc2C(=O)O)n1 | < 1
56 | O=C(O)C1CCc2cc(C3CCCCC3)c(Cl)cc21 (stereo not given) | 61
57 | CC(C)C[C@H]1C(=O)O[C@H](Cc2ccc(N3CCOCC3)cc2)C(=O)N(C)[C@@H](CC(C)C)C(=O)O[C@H](C)C(=O)N(C)[C@@H](CC(C)C)C(=O)O[C@H](Cc2ccc(N3CCOCC3)cc2)C(=O)N(C)[C@@H](CC(C)C)C(=O)O[C@H](C)C(=O)N1C | < 1
58 | C=CCNC1=C2C[C@@H](C)C[C@H](OC)[C@H](O)[C@@H](C)/C=C(\C)[C@H](OC(N)=O)[C@@H](OC)/C=C\C=C(/C)C(=O)NC(=CC1=O)C2=O | 73
59 | CC[C@@]1(O)C(=O)OCc2c1cc1n(c2=O)Cc2cc3c(CN(C)C)c(O)ccc3nc2-1 | 1.37
60 | CNc1ncc(-c2ccc3c(=O)c(C(=O)O)cn(C4CC4)c3c2C)cc1C | 3
61 | CC(=O)c1cc2c(s1)c1cnn(Cc3ccccc3F)c(=O)c1n2C | > 300
62 | Cc1cc(C)nc(NC(=S)N2CCN(c3ccc(C(F)(F)F)cn3)CC2)c1 | 137
63 | COc1ccc(Cn2c(-c3ccccc3)c(-c3ccccc3)c3c(=N)n(CC(OC)OC)cnc32)cc1 | 272
64 | Cc1ccc(-c2csc3ncnc(Sc4nnnn4C)c23)cc1 | > 300
65 | O=C(Nc1cccnc1)c1cccs1 | 10
66 | C[C@@H]1COCCN1c1cc(C2(S(C)(=N)=O)CC2)nc(-c2ccnc3[nH]ccc23)n1 (stereo not given in full) | 33
67 | COc1ccc(-c2noc(CC(=O)O)c2-c2ccc(OC)cc2)cc1 | < 1
68 | CCCC(C)(COC(N)=O)COC(=O)NC(C)C (stereo not given) | 11
69 | CNC1CCC(N(Cc2ccc(OC)c(-c3ccc(C#N)cc3)c2)C(=O)c2sc3ccccc3c2Cl)CC1 (stereo not given) | 234
70 | CC1(C)S[C@@H]2[C@@H](N3C(=O)[C@@H](c4ccccc4)NC3(C)C)C(=O)N2[C@H]1C(=O)O | > 300
71 | NNC(=O)c1ccncc1 | 3
72 | CCCCCCCCCC(=O)O[C@H]1CC[C@H]2[C@@H]3CCC4=CC(=O)CC[C@@H]4[C@H]3CC[C@]12C | < 1

Row | Structure (SMILES) | Papp [×10⁻⁶ cm/s]
73 | CC(=O)OCC1=C(C(=O)O)N2C(=O)[C@@H](N)[C@H]2SC1 | < 1
74 | CO/N=C(/C(=O)N[C@@H]1C(=O)N2C(C(=O)O)=C(COC(N)=O)CS[C@H]12)c1ccco1 | 2
75 | O=C(Nc1ccc(S(=O)(=O)N2CCOCC2)cc1)c1cc(Cl)ccc1NS(=O)(=O)c1ccc(Cl)s1 | 85
76 | O=C(NCCO)c1cc(C(=O)NCCO)cc(C(=O)NCCO)c1 | < 1
77 | Cn1nnnc1SCC1=C(C(=O)O)N2C(=O)[C@@H](NC(=O)[C@H](OC=O)c3ccccc3)[C@H]2SC1 | < 1
78 | N=c1c2c(-c3ccccc3)c(-c3ccccc3)n(Cc3ccccc3)c2ncn1CCNc1ccncc1 | 90
79 | C1CCC(COCCc2noc(C3CNC3)n2)C1 | < 1
80 | O=C(c1ccc(-c2ncc3cnc(-c4cccc(F)c4)cn23)cc1)N1CC(O)C1 | 27
81 | Cn1nnnc1Sc1ncnc2scc(-c3ccsc3)c12 | 173
82 | Oc1c(Cl)cc(Cl)cc1Sc1cc(Cl)cc(Cl)c1O | 288
83 | COCCn1cnc2c(c(-c3ccccc3)c(-c3ccccc3)n2Cc2ccc(OC)cc2)c1=N | 231
84 | COc1ccc(S(=O)(=O)Nc2cccnc2Nc2ccc(O)cc2)cc1 | 13
85 | CCN(CC)CC(=O)Oc1ccc(NC(C)=O)cc1 | 7
86 | Cc1cc(=O)c(C(=O)N[C@@H](C(=O)N[C@@H]2C(=O)N3C(C(=O)O)=C(CSc4nnnn4C)CS[C@H]23)c2ccc(O)cc2)c[nH]1 | < 1
87 | CO/N=C(\C(=O)N[C@@H]1C(=O)N2C(C(=O)O)=C(CSc3nc(C)c(CC(=O)O)s3)CS[C@H]12)c1csc(N)n1 | < 1
88 | C[C@H](Nc1nc(N[C@H](C)C(F)(F)F)nc(-c2cccc(Cl)n2)n1)C(F)(F)F | 122
89 | CC(C)N(CCCNC(=O)Nc1ccc(C(C)(C)C)cc1)C[C@H]1O[C@@H](n2cc(Br)c3c(N)ncnc32)[C@H](O)[C@@H]1O | 6.2
90 | Cc1cccc(C#Cc2cc(F)cc(C#N)c2)n1 | 209
91 | CCCN(CCC)C1CCc2cccc(O)c2C1 (stereo not given) | 88
92 | Cn1nnnc1SCC1=C(C(=O)O)N2C(=O)[C@H](NC(=O)C(O)c3ccccc3)C2SC1 (stereo not given in full) | < 1
93 | CCOc1ccc2ccccc2c1C(=O)N[C@@H]1C(=O)N2[C@@H]1SC(C)(C)[C@@H]2C(=O)O | < 1
94 | O=C(CCCN1CCC(O)(c2ccc(Cl)cc2)CC1)c1ccc(F)cc1 | 217
95 | Cc1ccc(NC(=O)c2ccc(CN3CCNCC3)cc2)cc1Nc1nccc(-c2cccnc2)n1 | 19
